Laboratory results as given in patent US9636418B2 (priority 2013, dated 2017).

Experiments:
Assay in all cases: cell-based
hNav1.7 = hNav1.7 (Homo sapiens, UniProt Q15858); conditions: IonWorks Quattro; read-out: IC50 Nav1.7
hNav1.5 = hNav1.5 (Homo sapiens, UniProt Q14524); conditions: IonWorks Quattro; read-out: IC50 Nav1.5
hNav1.4 = hNav1.4 (Homo sapiens, UniProt P35499); conditions: for IC50: IonWorks Quattro, read-out: IC50 Nav1.4; for Nav1.4/Nav1.7: ratio of IonWorks Quattro IC50 values
hNav1.3 = hNav1.3 (Homo sapiens, UniProt Q9NY46); conditions: IonWorks Quattro; read-out: IC50 Nav1.3
Sequence of hNav1.3 (Q9NY46 whole entry): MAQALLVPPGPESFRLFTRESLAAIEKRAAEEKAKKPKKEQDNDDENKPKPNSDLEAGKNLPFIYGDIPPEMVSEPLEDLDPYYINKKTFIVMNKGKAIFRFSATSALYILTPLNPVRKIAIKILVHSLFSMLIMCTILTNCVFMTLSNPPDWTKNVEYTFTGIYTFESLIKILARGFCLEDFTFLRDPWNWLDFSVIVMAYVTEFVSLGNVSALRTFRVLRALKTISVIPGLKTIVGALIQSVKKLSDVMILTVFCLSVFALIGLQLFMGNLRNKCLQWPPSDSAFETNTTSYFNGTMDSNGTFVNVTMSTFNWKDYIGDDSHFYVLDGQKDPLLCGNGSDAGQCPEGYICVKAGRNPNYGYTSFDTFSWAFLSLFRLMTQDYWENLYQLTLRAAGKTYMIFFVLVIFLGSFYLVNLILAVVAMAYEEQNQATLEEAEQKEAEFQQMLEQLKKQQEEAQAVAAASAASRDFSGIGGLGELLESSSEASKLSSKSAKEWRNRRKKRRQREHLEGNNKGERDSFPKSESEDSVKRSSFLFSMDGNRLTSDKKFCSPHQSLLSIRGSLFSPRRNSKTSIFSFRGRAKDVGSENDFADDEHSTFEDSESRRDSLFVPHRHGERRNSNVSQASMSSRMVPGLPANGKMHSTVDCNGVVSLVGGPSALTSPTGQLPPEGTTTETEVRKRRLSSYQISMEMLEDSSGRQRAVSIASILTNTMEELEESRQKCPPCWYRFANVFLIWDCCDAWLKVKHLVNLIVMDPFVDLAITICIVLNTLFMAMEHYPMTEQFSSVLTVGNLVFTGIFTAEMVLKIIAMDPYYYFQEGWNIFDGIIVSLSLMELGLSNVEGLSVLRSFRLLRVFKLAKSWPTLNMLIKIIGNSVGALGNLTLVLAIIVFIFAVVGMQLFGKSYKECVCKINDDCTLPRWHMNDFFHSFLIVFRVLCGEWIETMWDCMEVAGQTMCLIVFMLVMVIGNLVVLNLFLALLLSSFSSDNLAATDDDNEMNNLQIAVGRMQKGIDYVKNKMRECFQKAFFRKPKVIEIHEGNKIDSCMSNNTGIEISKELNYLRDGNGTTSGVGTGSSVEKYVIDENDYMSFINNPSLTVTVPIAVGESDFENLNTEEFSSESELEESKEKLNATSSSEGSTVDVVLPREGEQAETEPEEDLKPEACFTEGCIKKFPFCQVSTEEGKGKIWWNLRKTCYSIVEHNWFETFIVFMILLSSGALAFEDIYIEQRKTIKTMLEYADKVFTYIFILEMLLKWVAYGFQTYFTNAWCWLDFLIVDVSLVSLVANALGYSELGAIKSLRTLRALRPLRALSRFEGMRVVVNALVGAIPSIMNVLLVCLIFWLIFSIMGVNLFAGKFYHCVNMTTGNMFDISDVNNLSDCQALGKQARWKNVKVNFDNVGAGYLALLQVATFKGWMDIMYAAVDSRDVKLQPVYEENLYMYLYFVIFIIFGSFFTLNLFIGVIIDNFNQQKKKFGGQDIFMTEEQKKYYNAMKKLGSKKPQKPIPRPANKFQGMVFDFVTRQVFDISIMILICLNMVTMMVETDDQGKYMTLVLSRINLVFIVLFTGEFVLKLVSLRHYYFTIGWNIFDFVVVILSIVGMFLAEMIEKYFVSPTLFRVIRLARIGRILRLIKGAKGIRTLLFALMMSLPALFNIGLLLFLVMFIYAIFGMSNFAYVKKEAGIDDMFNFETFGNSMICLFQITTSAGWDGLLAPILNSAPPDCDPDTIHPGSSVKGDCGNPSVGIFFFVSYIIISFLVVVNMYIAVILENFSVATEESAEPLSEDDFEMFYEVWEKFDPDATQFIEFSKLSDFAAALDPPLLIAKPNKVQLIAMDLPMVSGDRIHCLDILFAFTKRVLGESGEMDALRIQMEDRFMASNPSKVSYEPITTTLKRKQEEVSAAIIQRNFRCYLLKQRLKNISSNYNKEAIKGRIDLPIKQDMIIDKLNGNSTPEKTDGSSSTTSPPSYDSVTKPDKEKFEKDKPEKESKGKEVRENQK

Sequence of hNav1.5 (Q14524 whole entry): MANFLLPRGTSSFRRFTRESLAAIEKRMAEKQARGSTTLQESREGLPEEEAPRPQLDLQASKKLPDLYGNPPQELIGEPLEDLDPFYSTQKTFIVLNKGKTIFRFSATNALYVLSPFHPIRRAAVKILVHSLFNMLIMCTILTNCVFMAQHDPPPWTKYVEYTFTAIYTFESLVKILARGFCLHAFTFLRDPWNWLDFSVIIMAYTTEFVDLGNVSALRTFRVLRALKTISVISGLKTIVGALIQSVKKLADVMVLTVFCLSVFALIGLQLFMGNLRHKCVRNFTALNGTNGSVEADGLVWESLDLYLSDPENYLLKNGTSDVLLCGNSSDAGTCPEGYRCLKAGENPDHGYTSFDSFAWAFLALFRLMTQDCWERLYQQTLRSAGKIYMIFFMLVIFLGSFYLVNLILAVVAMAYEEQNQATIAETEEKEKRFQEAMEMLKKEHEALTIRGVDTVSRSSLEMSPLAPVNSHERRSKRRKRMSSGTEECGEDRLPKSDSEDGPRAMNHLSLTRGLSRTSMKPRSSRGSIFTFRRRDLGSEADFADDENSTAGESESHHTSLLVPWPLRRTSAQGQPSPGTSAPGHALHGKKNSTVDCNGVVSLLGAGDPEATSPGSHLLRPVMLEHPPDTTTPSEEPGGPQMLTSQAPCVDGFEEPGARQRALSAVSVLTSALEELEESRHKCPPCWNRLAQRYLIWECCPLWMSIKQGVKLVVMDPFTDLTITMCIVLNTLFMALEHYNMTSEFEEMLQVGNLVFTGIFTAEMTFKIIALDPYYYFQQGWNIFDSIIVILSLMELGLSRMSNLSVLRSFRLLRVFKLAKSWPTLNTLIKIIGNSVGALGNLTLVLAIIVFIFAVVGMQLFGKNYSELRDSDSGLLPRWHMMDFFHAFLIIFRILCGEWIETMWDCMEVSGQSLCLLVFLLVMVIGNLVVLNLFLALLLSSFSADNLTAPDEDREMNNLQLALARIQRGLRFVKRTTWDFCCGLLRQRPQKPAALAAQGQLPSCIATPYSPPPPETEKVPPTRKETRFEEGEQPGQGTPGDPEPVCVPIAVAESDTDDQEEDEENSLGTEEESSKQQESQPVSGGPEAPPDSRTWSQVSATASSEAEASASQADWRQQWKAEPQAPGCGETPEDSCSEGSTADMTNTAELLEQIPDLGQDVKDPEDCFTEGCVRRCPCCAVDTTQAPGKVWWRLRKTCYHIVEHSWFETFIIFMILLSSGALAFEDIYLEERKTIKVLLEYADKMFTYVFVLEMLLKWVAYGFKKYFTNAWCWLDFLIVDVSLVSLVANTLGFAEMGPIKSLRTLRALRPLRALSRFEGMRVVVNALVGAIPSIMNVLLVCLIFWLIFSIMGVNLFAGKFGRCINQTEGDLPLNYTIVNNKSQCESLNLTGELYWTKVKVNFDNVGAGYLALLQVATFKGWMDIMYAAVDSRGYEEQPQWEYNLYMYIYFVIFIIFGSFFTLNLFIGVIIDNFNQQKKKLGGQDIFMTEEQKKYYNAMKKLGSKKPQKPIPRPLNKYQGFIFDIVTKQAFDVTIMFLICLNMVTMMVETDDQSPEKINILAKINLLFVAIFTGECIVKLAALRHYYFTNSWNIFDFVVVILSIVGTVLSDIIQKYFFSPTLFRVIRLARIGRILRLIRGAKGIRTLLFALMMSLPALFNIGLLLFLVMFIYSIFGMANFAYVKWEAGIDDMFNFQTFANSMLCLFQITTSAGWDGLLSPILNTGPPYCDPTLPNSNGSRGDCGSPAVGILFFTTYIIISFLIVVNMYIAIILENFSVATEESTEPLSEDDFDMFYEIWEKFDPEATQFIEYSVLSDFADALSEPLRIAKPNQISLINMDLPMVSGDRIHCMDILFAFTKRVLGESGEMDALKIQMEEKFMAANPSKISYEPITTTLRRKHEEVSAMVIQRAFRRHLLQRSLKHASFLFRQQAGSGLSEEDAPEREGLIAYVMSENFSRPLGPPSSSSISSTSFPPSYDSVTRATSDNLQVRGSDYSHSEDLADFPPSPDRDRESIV

| SMILES | IC50 (hNav1.7) [µM] | IC50 (hNav1.5) [µM] | IC50 (hNav1.4) [µM] | Nav1.4/Nav1.7 (hNav1.4) | IC50 (hNav1.3) [µM] |
| --- | --- | --- | --- | --- | --- |
| CC[C@H](C)[C@H](NC(=O)[C@@H](NC(=O)[C@H](CCCCN)NC(=O)[C@H](CCCNC(=N)N)NC(=O)[C@@H]1CSSC[C@@H]2NC(=O)[C@H](C)NC(=O)[C@H](CCCNC(=N)N)NC(=O)[C@H](CCCCN)NC(=O)[C@H](CO)NC(=O)[C@H](CC(=O)O)NC(=O)[C@@H]3CSSC[C@H](NC(=O)[C@H](CC(C)C)NC(=O)[C@H](CC(C)C)NC(=O)CNC(=O)[C@H](CCC(=O)O)NC(=O)[C@H](CSSC[C@H](NC(=O)[C@@H](N)Cc4ccc(O)cc4)C(=O)N[C@@H](CCC(N)=O)C(=O)N[C@@H](CCCCN)C(=O)N[C@@H](Cc4c[nH]c5ccccc45)C(=O)N[C@@H](CCSC)C(=O)N[C@@H](Cc4c[nH]c5ccccc45)C(=O)N[C@@H]([C@@H](C)O)C(=O)N3)NC2=O)C(=O)N[C@@H](CCCCN)C(=O)N[C@@H](CC(C)C)C(=O)N[C@@H](Cc2c[nH]c3ccccc23)C(=O)N1)[C@@H](C)CC)C(N)=O [compound 119] | 0.07 | 8.3 | 1 | 14 | 2.51 |
| CSCC[C@@H]1NC(=O)[C@H](Cc2c[nH]c3ccccc23)NC(=O)[C@H](CCCCN)NC(=O)[C@H](CCC(N)=O)NC(=O)[C@@H](NC(=O)[C@@H](N)Cc2ccc(O)cc2)CSSC[C@@H]2NC(=O)[C@@H]3CSSC[C@@H](C(=O)N[C@@H](CCCNC(=N)N)C(=O)N[C@@H](CCCCN)C(=O)N[C@@H](Cc4ccc(O)cc4)C(=O)N[C@@H](CCC(=O)O)C(N)=O)NC(=O)[C@H](Cc4c[nH]c5ccccc45)NC(=O)[C@H](CC(C)C)NC(=O)[C@H](CCCCN)NC(=O)[C@H](CSSC[C@H](NC(=O)[C@H]([C@@H](C)O)NC(=O)[C@H](Cc4c[nH]c5ccccc45)NC1=O)C(=O)N[C@@H](CC(=O)O)C(=O)N[C@@H](CO)C(=O)N[C@@H](CCCCN)C(=O)N[C@@H](CCCNC(=N)N)C(=O)N[C@@H](C)C(=O)N3)NC(=O)[C@H](CCC(=O)O)NC(=O)[C@H](CC(C)C)NC(=O)CNC(=O)[C@H](CCC(=O)O)NC2=O [compound 245] | 4.7 | > 5 | > 5 | – | > 5 |
| CC[C@H](C)[C@H](NC(=O)[C@H](Cc1ccc(O)cc1)NC(=O)[C@H](CCCCN)NC(=O)[C@H](CCCNC(=N)N)NC(=O)[C@@H]1CSSC[C@@H]2NC(=O)[C@H](C)NC(=O)[C@H](CCCNC(=N)N)NC(=O)[C@H](CCCCN)NC(=O)[C@H](CO)NC(=O)[C@H](CC(=O)O)NC(=O)[C@@H]3CSSC[C@H](NC(=O)[C@H](CCC(=O)O)NC(=O)[C@H](CC(C)C)NC(=O)CNC(=O)[C@H](CCC(=O)O)NC(=O)[C@H](CSSC[C@H](NC(=O)[C@@H](N)Cc4ccc(O)cc4)C(=O)N[C@@H](CCC(N)=O)C(=O)N[C@@H](CCCCN)C(=O)N[C@@H](Cc4c[nH]c5ccccc45)C(=O)N[C@@H](CCSC)C(=O)N[C@@H](Cc4c[nH]c5ccccc45)C(=O)N[C@@H]([C@@H](C)O)C(=O)N3)NC2=O)C(=O)N[C@@H](CCCCN)C(=O)N[C@@H](CC(C)C)C(=O)N[C@@H](CC(N)=O)C(=O)N1)C(N)=O [compound 229] | > 5 | > 5 | > 5 | – | > 5 |
| CC[C@H](C)[C@H](NC(=O)[C@H](Cc1ccc(O)cc1)NC(=O)[C@H](CCCCN)NC(=O)[C@H](CCCNC(=N)N)NC(=O)[C@@H]1CSSC[C@@H]2NC(=O)[C@H](C)NC(=O)[C@H](CCCNC(=N)N)NC(=O)[C@H](CCCCN)NC(=O)[C@H](CO)NC(=O)[C@H](CC(=O)O)NC(=O)[C@@H]3CSSC[C@H](NC(=O)[C@H](CCC(=O)O)NC(=O)[C@H](CC(C)C)NC(=O)CNC(=O)[C@H](CCC(=O)O)NC(=O)[C@H](CSSC[C@H](NC(=O)[C@@H](N)Cc4ccc(O)cc4)C(=O)N[C@@H](CCC(N)=O)C(=O)N[C@@H](CCCCN)C(=O)N[C@@H](Cc4c[nH]c5ccccc45)C(=O)N[C@@H](CCSC)C(=O)N[C@@H](CC(N)=O)C(=O)N[C@@H]([C@@H](C)O)C(=O)N3)NC2=O)C(=O)N[C@@H](CCCCN)C(=O)N[C@@H](CC(C)C)C(=O)N[C@@H](Cc2c[nH]c3ccccc23)C(=O)N1)C(N)=O [compound 215] | 5 | > 7 | 6.1 | 1 | > 7 |
| CCC[C@@H]1NC(=O)[C@H](CC(C)C)NC(=O)[C@H](CCCCN)NC(=O)[C@@H]2CSSC[C@@H]3NC(=O)[C@H]([C@@H](C)O)NC(=O)[C@H](Cc4c[nH]c5ccccc45)NC(=O)[C@H](CCSC)NC(=O)[C@H](Cc4c[nH]c5ccccc45)NC(=O)[C@H](CCCCN)NC(=O)[C@H](CCC(N)=O)NC(=O)[C@@H](NC(=O)[C@@H](N)Cc4ccc(O)cc4)CSSC[C@H](NC(=O)[C@H](CSSC[C@@H](C(=O)N[C@@H](CCCNC(=N)N)C(=O)N[C@@H](CCCCN)C(=O)N[C@@H](Cc4ccc(O)cc4)C(=O)N[C@H](C(N)=O)[C@@H](C)CC)NC1=O)NC(=O)[C@H](C)NC(=O)[C@H](CCCNC(=N)N)NC(=O)[C@H](CCCCN)NC(=O)[C@H](CO)NC(=O)[C@H](CC(=O)O)NC3=O)C(=O)N[C@@H](CCC(=O)O)C(=O)NCC(=O)N[C@@H](CC(C)C)C(=O)N[C@@H](CCC(=O)O)C(=O)N2 [compound 226] | > 5 | > 5 | > 5 | – | > 5 |
| CC[C@H](C)[C@H](NC(=O)[C@H](Cc1ccc(O)cc1)NC(=O)[C@H](CCCCN)NC(=O)[C@H](CCCNC(=N)N)NC(=O)[C@@H]1CSSC[C@@H]2NC(=O)[C@H](C)NC(=O)[C@H](CCCNC(=N)N)NC(=O)[C@H](CCCCN)NC(=O)[C@H](CO)NC(=O)[C@H](CC(=O)O)NC(=O)[C@@H]3CSSC[C@H](NC(=O)[C@H](CCC(=O)O)NC(=O)[C@H](CC(C)C)NC(=O)CNC(=O)[C@H](CCC(=O)O)NC(=O)[C@H](CSSC[C@H](NC(=O)[C@@H](N)Cc4ccc(O)cc4)C(=O)N[C@@H](CCC(N)=O)C(=O)N[C@@H](CCCCN)C(=O)N[C@@H](Cc4c[nH]c5ccccc45)C(=O)N[C@@H](CCSC)C(=O)N[C@@H](Cc4c[nH]c5ccccc45)C(=O)N[C@@H]([C@@H](C)O)C(=O)N3)NC2=O)C(=O)N[C@@H](CCCCN)C(=O)N[C@@H](CC(C)C)C(=O)N[C@@H](CCCCN)C(=O)N1)C(N)=O [compound 228] | 2.7 | > 5 | > 5 | – | > 5 |
| CC[C@H](C)[C@H](NC(=O)[C@H](CC(=O)O)NC(=O)[C@H](CCCCN)NC(=O)[C@H](CCCNC(=N)N)NC(=O)[C@@H]1CSSC[C@@H]2NC(=O)[C@H](C)NC(=O)[C@H](CCCNC(=N)N)NC(=O)[C@H](CCCCN)NC(=O)[C@H](CO)NC(=O)[C@H](CC(=O)O)NC(=O)[C@@H]3CSSC[C@H](NC(=O)[C@H](CCC(=O)O)NC(=O)[C@H](CC(C)C)NC(=O)CNC(=O)[C@H](CCC(=O)O)NC(=O)[C@H](CSSC[C@H](NC(=O)[C@@H](N)Cc4ccc(O)cc4)C(=O)N[C@@H](CCC(N)=O)C(=O)N[C@@H](CCCCN)C(=O)N[C@@H](Cc4c[nH]c5ccccc45)C(=O)N[C@@H](CCSC)C(=O)N[C@@H](Cc4c[nH]c5ccccc45)C(=O)N[C@@H]([C@@H](C)O)C(=O)N3)NC2=O)C(=O)N[C@@H](CCCCN)C(=O)N[C@@H](CC(C)C)C(=O)N[C@@H](Cc2c[nH]c3ccccc23)C(=O)N1)C(N)=O [compound 128] | 1.34 | 13.9 | > 5 | 4 | > 5 |
